Legend:
[1] = test system: brain of ischemic mice; experiment: Cerebral ischemia in mice with common carotid artery ligation and reperfusion (brain LDH and SOD); format: in vivo; conditions: 2 mg/kg tail i.v.
Experimental: Grouped mice were respectively administered test substance, nimodipine or normal salt by tail intravenous injection. After 15 minutes, the mice were anesthetized with 3.5% chloral hydrate, fixed in the back. The right and left common carotid artery and vagus nerve were exposed, and 4-0 suture was inserted under the bilateral carotid artery. The suture was tightened to block blood flow for 5 minutes. Then the line was loosened to restore blood flow for 10 minutes. The operation was repeated three times, and an ischemia-reperfusion model in mice was established. After the last reperfusion, the mice were decapitated and brain collected. In the control group, only the bilateral carotid arteries were exposed, without a suture being inserted.

[2] = test system: decapitated mice; experiment: Breathing time, breathing frequency, brain index and brain water content in decapitated mice; format: in vivo, ICR mice; conditions: 2 mg/kg tail i.v.
Experimental: The model group was administrated normal salt. At 15 minutes after administration, the mice were decapitated by a pair of scissors. The mouth breathing time, breathing frequency and brain water content were recorded and compared with other groups. Whole brains were collected. After the wet weight was obtained, they were dried in an oven at 100° C. for 24 hours. The average value was taken to calculate brain water content: brain water content (%)=[…]. Brain index: brain index=brain wet weight (g)/body weight (g)×100%.

COCCOC(=O)C1=C(C)NC(C)=C(C(=O)OC(C)C)C1c1cccc([N+](=O)[O-])c1 (stereo not drawn) [Nimodipine, nimodipine]
LDH [1]: 11.3 ± 6.6 U/mg | SOD [1]: 144.77 ± 21.61 U/mg | Brain water content [2]: 75.8 ± 1.0 %

From US20090170801A1 (Beijing Century Biocom Pharmaceutical Technology Co. Ltd., priority 2006, published 2009)
